Where two headings read alike, the source gives them in different places.
Experiments:
[1] = target: human plasma kallikrein (Homo sapiens, UniProt P03952); experiment: Kallikrein inhibition assay utilizing a quenched AMC peptide substrate (FLINT); format: biochemical; settings: 30 min preincubation, 50 μM Z-Gly-Pro-Arg-AMC, 2 nM kallikrein
How it was run: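 Human plasma kallikrein (2 nM final) was preincubated 30 min at room temperature with compound (11-point 3-fold dilution, top 1 μM, 2% DMSO) in pH 7.5 Tris buffer with CaCl2, BSA and CHAPS. Z-Gly-Pro-Arg-AMC (50 μM final) fluorescence was read at 340/440 nm every 5 min for 30 min. IC50 came from a 4-parameter logistic fit.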

[2] = target: Factor XIa (Homo sapiens, UniProt P03951); experiment: Factor XIa inhibition assay utilizing a fluorophore-quencher pair peptide substrate (FLINT); format: biochemical; settings: for Ki: read-out: FXIa Ki; for IC50: read-out: FXIa IC50
Chain of Factor XIa (P03951 388-625 limits assumed): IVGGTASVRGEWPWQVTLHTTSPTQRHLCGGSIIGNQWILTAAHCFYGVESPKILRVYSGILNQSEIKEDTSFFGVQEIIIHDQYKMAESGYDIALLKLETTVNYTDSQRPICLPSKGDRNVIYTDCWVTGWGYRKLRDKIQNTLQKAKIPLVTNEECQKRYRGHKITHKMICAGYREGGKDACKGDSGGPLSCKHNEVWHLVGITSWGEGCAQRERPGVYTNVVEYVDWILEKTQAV
Chain of Factor XIa (P03951 19-387 partner limits assumed): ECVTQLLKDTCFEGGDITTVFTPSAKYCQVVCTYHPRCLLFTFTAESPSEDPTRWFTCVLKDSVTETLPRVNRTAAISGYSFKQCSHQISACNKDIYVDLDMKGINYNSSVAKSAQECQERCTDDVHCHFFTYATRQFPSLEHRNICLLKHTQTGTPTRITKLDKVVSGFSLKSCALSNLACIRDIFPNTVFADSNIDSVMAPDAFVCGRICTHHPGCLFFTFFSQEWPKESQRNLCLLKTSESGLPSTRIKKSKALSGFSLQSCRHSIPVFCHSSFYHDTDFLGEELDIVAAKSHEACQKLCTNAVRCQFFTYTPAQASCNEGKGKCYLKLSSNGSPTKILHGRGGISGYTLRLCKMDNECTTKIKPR
How it was run: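 Enzyme preincubated 30 min at room temperature with compound (11-point 3-fold dilution, top 100 nM, 2% DMSO), then 15 μM 5Fam-KLTRAETV-K5Tamra substrate added. Buffer: 50 mM Tris pH 7.5, 100 mM NaCl, 5 mM CaCl2, 0.1 mg/mL BSA, 0.03% CHAPS. Fluorescence (485/520 nm) read kinetically over 30 min; IC50 from 4-parameter logistic fit.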

[3] = cells that print μM themselves in the nM column
[4] = cells that print μM themselves in the nM column, same assay conditions
[5] = 30 min preincubation, 5Fam-KLTRAETV-K5Tamra substrate 15 μM final, kinetic reads

Chain of human plasma kallikrein (P03952 391-638 limits assumed): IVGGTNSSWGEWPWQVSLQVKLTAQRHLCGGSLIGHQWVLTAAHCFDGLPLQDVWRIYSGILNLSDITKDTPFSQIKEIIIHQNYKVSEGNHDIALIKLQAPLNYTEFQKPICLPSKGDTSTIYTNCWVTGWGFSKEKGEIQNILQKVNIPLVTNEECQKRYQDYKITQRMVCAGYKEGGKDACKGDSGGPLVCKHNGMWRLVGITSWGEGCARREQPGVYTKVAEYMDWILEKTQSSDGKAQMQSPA
Chain of human plasma kallikrein (P03952 20-390 partner limits assumed): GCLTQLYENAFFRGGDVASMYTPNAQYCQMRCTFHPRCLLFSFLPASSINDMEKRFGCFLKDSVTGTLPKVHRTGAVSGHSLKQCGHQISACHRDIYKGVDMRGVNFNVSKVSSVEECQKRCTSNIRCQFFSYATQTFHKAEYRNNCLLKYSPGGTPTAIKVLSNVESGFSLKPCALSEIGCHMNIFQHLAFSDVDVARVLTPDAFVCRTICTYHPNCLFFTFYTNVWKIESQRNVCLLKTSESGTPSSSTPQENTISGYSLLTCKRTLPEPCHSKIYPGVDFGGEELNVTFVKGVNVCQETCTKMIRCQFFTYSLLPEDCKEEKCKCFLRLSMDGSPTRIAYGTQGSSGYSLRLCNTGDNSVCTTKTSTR

IC50 [1] | Ki [2, 3] | IC50 [2, 4] | Ki [2] | IC50 [2, 5] | Structure (SMILES)
> 10000 nM | – | 1.2 µM | 0.598 µM | – | CC1(C)Cc2ccc(Cl)c(F)c2-c2cc(=O)n3c(c2C(=O)N1)CC[C@@H]3c1ncc(-c2ccc(N)nc2F)[nH]1 (single isomer, unassigned) [Compound 21, (R*)-12-(5-(6-amino-2-fluoropyridin-3-yl)-1H-imidazol-2-yl)-7-chloro-8-fluoro-3,3-dimethyl-3,4,13,14-tetrahydrobenzo[5,6]azocino[4,3-g]indolizine-1,10(2H,12H)-dione]
8080 nM | – | – | 0.0541 µM | 0.108 µM | Cn1ccc(-c2cnc([C@H](CC3CC3)n3cc4c(cc3=O)-c3c(ccc(Cl)c3F)CC3(CC3)NC4=O)[nH]2)cc1=O (single isomer, unassigned) [Compound 69, (S*)-11-chloro-3-(2-cyclopropyl-1-(5-(1-methyl-2-oxo-1,2-dihydropyridin-4-yl)-1H-imidazol-2-yl)ethyl)-12-fluoro-3H-spiro[benzo[e]pyrido[3,4-c]azocine-7,1′-cyclopropane]-2,5(6H,8H)-dione]
> 10000 nM | – | – | ~0.392 µM | ~0.783 µM | CC1(C)Cc2ccc(Cl)c(F)c2-c2cc(=O)n3c(c2C(=O)N1)CC[C@@H]3c1ncc(-c2ccc(N)nc2F)[nH]1 (single isomer, unassigned) [Compound 28, (R*)-12-(5-(6-amino-2-fluoropyridin-3-yl)-1H-imidazol-2-yl)-7-chloro-8-fluoro-3,3-dimethyl-3,4,13,14-tetrahydrobenzo[5,6]azocino[4,3-g]indolizine-1,10(2H,12H)-dione]
70 nM | – | – | 0.001 µM | 0.002 µM | O=C1NC2(CC2)Cc2ccc(Cl)c(F)c2-c2cc(=O)n3c(c21)CC[C@H]3c1ncc(-c2ccc3[nH]ccc3c2)[nH]1 (single isomer, unassigned) [Compound 13, (S*)-12-(5-(1H-indol-5-yl)-1H-imidazol-2-yl)-7-chloro-8-fluoro-13,14-dihydro-2H-spiro[benzo[5,6]azocino[4,3-g]indolizine-3,1′-cyclopropane]-1,10(4H,12H)-dione]
> 10000 nM | > 5 µM | > 10 µM | – | – | O=C1NC2(CC2)Cc2ccc(Cl)c(F)c2-c2cc(=O)n3c(c21)CC[C@H]3c1ncc(-c2ccn3c(Br)cnc3c2)[nH]1 (single isomer, unassigned) [Compound 71, (*S)-12-(5-(3-Bromoimidazo[1,2-a]pyridin-7-yl)-1H-imidazol-2-yl)-7-chloro-8-fluoro-13,14-dihydro-2H-spiro[benzo[5,6]azocino[4,3-g]indolizine-3,1′-cyclopropane]-1,10(4H,12H)-dione]
330 nM | – | – | 0.0029 µM | 0.0057 µM | O=C1NC2(CC2)Cc2ccc(Cl)c(F)c2-c2cc(=O)n3c(c21)CC[C@@H]3c1ncc(-c2ccc3snnc3c2)[nH]1 (stereo in doubt) [Compound 30, (R*)-12-(5-(benzo[d][1,2,3]thiadiazol-5-yl)-1H-imidazol-2-yl)-7-chloro-8-fluoro-13,14-dihydro-2H-spiro[benzo[5,6]azocino[4,3-g]indolizine-3,1′-cyclopropane]-1,10(4H,12H)-dione]
> 10000 nM | 1.12 µM | 2.24 µM | – | – | Cn1ccc(-c2cnc(C(CC3CC3)n3cc4c(cc3=O)-c3c(ccc(Cl)c3F)CC3(CC3)NC4=O)[nH]2)cc1=O (single isomer, unassigned) [Compound 68, (R*)-11-chloro-3-(2-cyclopropyl-1-(5-(1-methyl-2-oxo-1,2-dihydropyridin-4-yl)-1H-imidazol-2-yl)ethyl)-12-fluoro-3H-spiro[benzo[e]pyrido[3,4-c]azocine-7,1′-cyclopropane]-2,5(6H,8H)-dione]

Second part, the compound before the results:

Structure (SMILES) | IC50 [1] | Ki [2, 3] | IC50 [2, 4] | Ki [2] | IC50 [2, 5]
Nc1ccc(-c2cnc(C3CCc4c5c(cc(=O)n43)-c3c(ccc(Cl)c3F)-c3ccncc3NC5=O)[nH]2)c(F)n1 (single isomer, unassigned) [Compound 36, (S*)-3-(5-(6-amino-2-fluoropyridin-3-yl)-1H-imidazol-2-yl)-8-chloro-7-fluoro-2,3-dihydrobenzo[5,6]pyrido[4′,3′:7,8]azocino[4,3-g]indolizine-5,16(1H,15H)-dione] | > 10000 nM | ~2.87 µM | ~5.75 µM | – | –
Nc1ccc(-c2[nH]c(C3CCc4c5c(cc(=O)n43)-c3cc(Cl)ccc3CC3(CC3)NC5=O)nc2F)c(F)n1 (stereo not drawn) [Compound 1, 12-(5-(6-amino-2-fluoropyridin-3-yl)-4-fluoro-1H-imidazol-2-yl)-7-chloro-13,14-dihydro-2H-spiro[benzo[5,6]azocino[4,3-g]indolizine-3,1′-cyclopropane]-1,10(4H,12H)-dione] | 540 nM | – | – | 0.0008 µM | 0.0015 µM
Nc1ccc(-c2cnc([C@@H]3CCc4c5c(cc(=O)n43)-c3c(ccc(Cl)c3F)CCNC5=O)[nH]2)c(Cl)n1 (stereo in doubt) [Compound 49, (S*)-12-(5-(6-amino-2-chloropyridin-3-yl)-1H-imidazol-2-yl)-7-chloro-8-fluoro-3,4,13,14-tetrahydrobenzo[5,6]azocino[4,3-g]indolizine-1,10(2H,12H)-dione] | > 10000 nM | 1.29 µM | 2.59 µM | – | –
O=C1NC2(CC2)Cc2ccc(Cl)c(F)c2-c2cc(=O)n3c(c21)CC[C@@H]3c1ncc(-c2ccc3[nH]ccc3c2)[nH]1 (single isomer, unassigned) [Compound 17, (R*)-12-(5-(1H-indol-5-yl)-1H-imidazol-2-yl)-7-chloro-8-fluoro-13,14-dihydro-2H-spiro[benzo[5,6]azocino[4,3-g]indolizine-3,1′-cyclopropane]-1,10(4H,12H)-dione] | > 10000 nM | – | 1.59 µM | 0.796 µM | –
O=C1NC2(CC2)Cc2ccc(Cl)c(F)c2-c2cc(=O)n3c(c21)CCC3c1ncc(-c2ccnc(CO)c2F)[nH]1 (stereo not drawn) [Compound 3, 7-chloro-8-fluoro-12-(5-(3-fluoro-2-(hydroxymethyl)pyridin-4-yl)-1H-imidazol-2-yl)-13,14-dihydro-2H-spiro[benzo[5,6]azocino[4,3-g]indolizine-3,1′-cyclopropane]-1,10(4H,12H)-dione] | 790 nM | – | – | 0.0076 µM | 0.0153 µM
Nc1ccc(-c2cnc(C3CCc4c5c(cc(=O)n43)-c3c(ccc(Cl)c3F)-c3ccncc3NC5=O)[nH]2)c(F)n1 (single isomer, unassigned) [Compound 37, (R*)-3-(5-(6-amino-2-fluoropyridin-3-yl)-1H-imidazol-2-yl)-8-chloro-7-fluoro-2,3-dihydrobenzo[5,6]pyrido[4′,3′:7,8]azocino[4,3-g]indolizine-5,16(1H,15H)-dione] | 3950 nM | – | – | ~0.0391 µM | ~0.078 µM
Nc1ccc(-c2cnc([C@H]3CCc4c5c(cc(=O)n43)-c3c(ccc(Cl)c3F)CCNC5=O)[nH]2)c(F)n1 (stereo in doubt) [Compound 47, (R*)-12-(5-(6-amino-2-fluoropyridin-3-yl)-1H-imidazol-2-yl)-7-chloro-8-fluoro-3,4,13,14-tetrahydrobenzo[5,6]azocino[4,3-g]indolizine-1,10(2H,12H)-dione] | 400 nM | – | – | 0.0025 µM | 0.005 µM
Nc1ccc(-c2cnc([C@@H]3CCc4c5c(cc(=O)n43)-c3c(ccc(Cl)c3F)CC3(CCC3)NC5=O)[nH]2)c(F)n1 (stereo in doubt) [Compound 32, (S*)-12-(5-(6-amino-2-fluoropyridin-3-yl)-1H-imidazol-2-yl)-7-chloro-8-fluoro-13,14-dihydro-2H-spiro[benzo[5,6]azocino[4,3-g]indolizine-3,1′-cyclobutane]-1,10(4H,12H)-dione] | 230 nM | – | – | 0.0004 µM | 0.0007 µM
O=C1NC2(CC2)Cc2ccc(Cl)c(F)c2-c2cc(=O)n3c(c21)CC[C@@H]3c1ncc(-c2ccc3cncn3c2)[nH]1 (stereo in doubt) [Compound 22, (R*)-7-chloro-8-fluoro-12-(5-(imidazo[1,5-a]pyridin-6-yl)-1H-imidazol-2-yl)-13,14-dihydro-2H-spiro[benzo[5,6]azocino[4,3-g]indolizine-3,1′-cyclopropane]-1,10(4H,12H)-dione] | > 10000 nM | 2.54 µM | 5.07 µM | – | –
COCCN1C(=O)c2c(cc(=O)n3c2CC[C@@H]3c2ncc(-c3ccc(N)nc3F)[nH]2)-c2c(ccc(Cl)c2F)CC12CC2 (stereo in doubt) [Compound 24, (R*)-12-(5-(6-amino-2-fluoropyridin-3-yl)-1H-imidazol-2-yl)-7-chloro-8-fluoro-2-(2-methoxyethyl)-13,14-dihydro-2H-spiro[benzo[5,6]azocino[4,3-g]indolizine-3,1′-cyclopropane]-1,10(4H,12H)-dione] | > 10000 nM | > 5 µM | – | – | > 0.01 µM
O=C1NC2(CC2)Cc2ccc(Cl)c(F)c2-c2cc(=O)n3c(c21)CC[C@H]3c1ncc(-c2ccc3cncn3c2)[nH]1 (stereo in doubt) [Compound 23, (S*)-7-chloro-8-fluoro-12-(5-(imidazo[1,5-a]pyridin-6-yl)-1H-imidazol-2-yl)-13,14-dihydro-2H-spiro[benzo[5,6]azocino[4,3-g]indolizine-3,1′-cyclopropane]-1,10(4H,12H)-dione] | 540 nM | – | – | 0.0035 µM | 0.007 µM

Reference: patent US11897880B2, “7,8-dihydrobenzo[e]pyrido[3,4-c]azocine-2,5(3H,6H)-dione derivatives useful as a factor XIa inhibitors” (Janssen Pharmaceutica NV, priority 2021, dated 2024)
